Measurements published in PubChem BioAssay (NCI).
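Compound exposure: 48 hours, 5 concentrations, 96-well plates. GI50 marks 50% less growth. At the TGI there is no net growth.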

Tests used:
Experiment in all cases: growth of human tumour cells (NCI), 48 h
[1] = tested on: CCRF-CEM leukemia
[2] = tested on: NCI-H522 lung
[3] = tested on: HCC-2998 colon
[4] = tested on: M14 melanoma
[5] = tested on: OVCAR-8 ovarian
[6] = tested on: NCI-H23 lung
[7] = tested on: HCT-116 colon
[8] = tested on: HS 578T breast
[9] = tested on: MDA-MB-435
[10] = tested on: DU-145 prostate

With `C[N+](C)(C)CC(=O)N/N=C/c1oc(-c2cccc([N+](=O)[O-])c2)c(-c2cccc([N+](=O)[O-])c2)c1[N+](=O)[O-]` the TGI [1] was greater than 100 µM, the TGI [2] was greater than 100 µM and the TGI [3] was greater than 100 µM. For the same molecule, the TGI [4] was greater than 100 µM, the TGI [5] was greater than 100 µM and the TGI [6] was greater than 100 µM. For the same molecule, the TGI [7] was greater than 100 µM.

Molecule `Cc1nn2c(=O)n(-c3cccc(-n4nnc5c(-c6ccccc6)c(C)nn5c4=O)c3C)nnc2c1-c1ccccc1` has a TGI [1] greater than 100 µM, a TGI [2] of 33.2 µM and a TGI [3] of 55.8 µM. It also gave a TGI [4] of 29.6 µM, a TGI [5] greater than 100 µM and a TGI [6] greater than 100 µM. It also gave a TGI [7] of 30.4 µM.

For `CCOC(=O)C1=C(C)NC(C)=C(C(=O)OCC)C1c1cc(Br)c(O)c(OC)c1`, the GI50 [8] was 2.54 µM, the TGI [8] was 9.47 µM and the GI50 [1] was 3.37 µM. For the same molecule, the TGI [1] was 15.7 µM, the GI50 [2] was 4.22 µM and the TGI [2] was 20.1 µM. For the same molecule, the GI50 [9] was 1.85 µM, the TGI [9] was 6.2 µM and the GI50 [3] was 3.12 µM. The TGI [3] was 10.8 µM, the GI50 [10] was 3.88 µM and the TGI [10] was 13.1 µM. For the same molecule, the GI50 [4] was 3.05 µM, the TGI [4] was 10.1 µM and the GI50 [5] was 4.47 µM. The TGI [5] was 38.9 µM, the GI50 [6] was 4.81 µM and the TGI [6] was 22.4 µM. For the same molecule, the GI50 [7] was 3.97 µM and the TGI [7] was 13.5 µM.

Work on `C=C1C(=O)O[C@H]2[C@H]1CC/C(COC(=O)c1cccc3ccccc13)=C\CC[C@@]1(C)O[C@@H]21` yielded a GI50 [8] of 1.98 µM, a TGI [8] of 6.01 µM and a GI50 [1] of 0.327 µM. For the same molecule, the TGI [1] was 12.4 µM, the GI50 [2] was 1.66 µM and the TGI [2] was 3.22 µM. The GI50 [9] was 1.53 µM, the TGI [9] was 3.35 µM and the GI50 [3] was 1.98 µM. For the same molecule, the TGI [3] was 3.76 µM, the GI50 [10] was 1.5 µM and the TGI [10] was 2.86 µM. For the same molecule, the GI50 [4] was 1.42 µM, the TGI [4] was 3.21 µM and the GI50 [5] was 1.7 µM. It also gave a TGI [5] of 5.42 µM, a GI50 [6] of 1.78 µM and a TGI [6] of 3.7 µM. For the same molecule, the GI50 [7] was 1.23 µM and the TGI [7] was 2.53 µM.

In the case of `CN=c1ss/c(=N\C(=S)N(C)C)n1C1CCCCC1`, the TGI [1] is reported as greater than 31.6 µM, the TGI [2] is reported as greater than 31.6 µM and the TGI [3] is reported as greater than 31.6 µM. It also gave a TGI [4] greater than 10 µM, a TGI [5] greater than 31.6 µM and a TGI [6] greater than 31.6 µM. The TGI [7] was greater than 10 µM.

In the case of `CN(C(=O)C12C3C4C1C1C2C3C41C(=O)N(C)C(C)(C)C)C(C)(C)C` (stereo not drawn), the TGI [1] is reported as greater than 50 µM, the TGI [2] is reported as greater than 50 µM and the TGI [3] is reported as greater than 50 µM. For the same molecule, the TGI [4] was greater than 50 µM, the TGI [5] was greater than 50 µM and the TGI [7] was greater than 50 µM.

`O=C(Cc1nc2ccc(C(=O)c3ccccc3)cc2[nH]c1=O)C(=O)Nc1ccc(C(F)(F)F)cc1[N+](=O)[O-]` gave a TGI [1] of 91.8 µM, a TGI [2] greater than 100 µM and a TGI [3] greater than 100 µM. For the same molecule, the TGI [4] was greater than 100 µM, the TGI [5] was greater than 100 µM and the TGI [6] was greater than 100 µM. It also gave a TGI [7] greater than 100 µM.

With `COc1ccc(/C=C/c2ccnc3ccccc23)cc1` the TGI [8] was 48.8 µM, the TGI [1] was 28.7 µM and the TGI [2] was 36.6 µM. It also gave a TGI [9] of 31.2 µM, a TGI [3] of 36.6 µM and a TGI [10] of 28 µM. The TGI [4] was 31.7 µM, the TGI [6] was 30.6 µM and the TGI [7] was 29.1 µM.

Work on `COc1cc(-c2nccc3[nH]c(-c4cccc5[nH]ccc45)nc23)cc(OC)c1OC` yielded a GI50 [8] of less than 0.01 µM, a TGI [8] of 23.9 µM and a GI50 [1] of less than 0.01 µM. It also gave a TGI [1] of 12 µM, a GI50 [9] of less than 0.01 µM and a TGI [9] of less than 0.01 µM. The GI50 [3] was less than 0.01 µM, the TGI [3] was 2.28 µM and the GI50 [10] was less than 0.01 µM. The TGI [10] was 15.6 µM, the GI50 [4] was less than 0.01 µM and the TGI [4] was 10.1 µM. The GI50 [5] was less than 0.01 µM, the TGI [5] was 14.1 µM and the GI50 [6] was less than 0.01 µM. For the same molecule, the TGI [6] was 19.1 µM, the GI50 [7] was less than 0.01 µM and the TGI [7] was 0.0202 µM.

`CC[C@@]1(OC(=O)C(N)CCC(=O)O)C(=O)OCc2c1cc1n(c2=O)Cc2cc3ccccc3nc2-1` (stereo partly drawn) gave a TGI [8] greater than 100 µM, a TGI [1] of 0.247 µM and a TGI [2] of 2.03 µM. For the same molecule, the TGI [3] was 3.02 µM, the TGI [10] was 0.0504 µM and the TGI [4] was 1.2 µM. It also gave a TGI [5] of 10.7 µM, a TGI [6] of 0.389 µM and a TGI [7] greater than 100 µM.

With `Cc1ccc(SC2C(C)(C)N(C(C)C)P2(=O)N(C(C)C)C(C)C)cc1` (stereo not drawn) the TGI [1] was greater than 55.7 µM, the TGI [2] was greater than 74.2 µM and the TGI [3] was greater than 100 µM. It also gave a TGI [4] greater than 100 µM, a TGI [5] greater than 100 µM and a TGI [6] greater than 100 µM. For the same molecule, the TGI [7] was greater than 63.4 µM.

Molecule `O=c1[nH]cc(CO)c(=O)[nH]1` has a GI50 [8] greater than 100 µM, a TGI [8] greater than 100 µM and a GI50 [1] greater than 100 µM. The TGI [1] was greater than 100 µM, the GI50 [2] was greater than 100 µM and the TGI [2] was greater than 100 µM. It also gave a GI50 [9] greater than 100 µM, a TGI [9] greater than 100 µM and a GI50 [3] greater than 100 µM. It also gave a TGI [3] greater than 100 µM, a GI50 [4] greater than 100 µM and a TGI [4] greater than 100 µM. It also gave a GI50 [5] greater than 100 µM, a TGI [5] greater than 100 µM and a GI50 [6] greater than 100 µM. For the same molecule, the TGI [6] was greater than 100 µM, the GI50 [7] was greater than 100 µM and the TGI [7] was greater than 100 µM.

`COC(=O)c1c2c(c(C)[n+]([O-])c1C)C(=O)C=C(NCc1ccc(Br)cc1)C2=O` gave a GI50 [8] of 2.4 µM, a TGI [8] of 8.05 µM and a GI50 [1] of 0.669 µM. The GI50 [2] was 1.23 µM, the TGI [2] was 4.11 µM and the GI50 [9] was 0.095 µM. The TGI [9] was 0.243 µM, the GI50 [3] was 0.491 µM and the TGI [3] was 1.9 µM. It also gave a GI50 [10] of 0.871 µM, a TGI [10] of 2.26 µM and a GI50 [4] of 0.0442 µM. The TGI [4] was 1.04 µM, the GI50 [6] was 0.721 µM and the TGI [6] was 3.32 µM. The GI50 [7] was 0.173 µM and the TGI [7] was 0.667 µM.

`COc1cc2c(cc1OCc1ccccc1)N=C[C@@H]1C[C@@H](F)CN1C2=O` gave a TGI [8] of 0.503 µM, a GI50 [1] of 0.355 µM and a TGI [1] of 1.59 µM. The TGI [2] was 0.187 µM, the GI50 [9] was 0.857 µM and the TGI [9] was 2.39 µM. For the same molecule, the GI50 [3] was 0.496 µM, the TGI [3] was 3.02 µM and the GI50 [10] was 0.144 µM. It also gave a TGI [10] of 1.66 µM, a GI50 [4] of 0.158 µM and a TGI [4] of 0.402 µM. It also gave a GI50 [5] of 0.565 µM, a TGI [5] of 5.89 µM and a GI50 [6] of 0.195 µM. The TGI [6] was 0.572 µM.

`O=S(=O)(CC(O)C(Cl)(Cl)Cl)NNc1ccccc1` (stereo not drawn) gave a TGI [8] greater than 100 µM, a TGI [1] greater than 100 µM and a TGI [2] greater than 100 µM. For the same molecule, the TGI [9] was greater than 100 µM, the TGI [10] was greater than 100 µM and the TGI [4] was greater than 100 µM. For the same molecule, the TGI [5] was greater than 100 µM, the TGI [6] was greater than 100 µM and the TGI [7] was greater than 100 µM.

Molecule `CCOC(=O)C/C(N)=C(\C#N)C(=O)OCC` has a TGI [1] greater than 100 µM, a TGI [2] greater than 100 µM and a TGI [4] greater than 100 µM. The TGI [5] was greater than 100 µM, the TGI [6] was greater than 100 µM and the TGI [7] was greater than 100 µM.

Molecule `O=S1c2ccccc2N=C(c2ccc3ccccc3c2)CC1c1ccccc1F` (stereo not drawn) has a TGI [1] greater than 100 µM, a TGI [2] greater than 100 µM and a TGI [3] greater than 100 µM. The TGI [4] was greater than 100 µM, the TGI [5] was greater than 100 µM and the TGI [6] was greater than 100 µM.

`CCOC(=O)c1c(C(F)(F)F)n([O-])c2ccc(Cl)cc2[n+]1=O` showed a GI50 [8] of 2.17 µM, a TGI [8] of 5.13 µM and a GI50 [1] of 1.77 µM. For the same molecule, the TGI [1] was 3.99 µM, the GI50 [2] was 2.11 µM and the TGI [2] was 4.3 µM. The GI50 [9] was 1.68 µM, the TGI [9] was 3.85 µM and the GI50 [10] was 1.93 µM. It also gave a TGI [10] of 3.5 µM, a GI50 [4] of 2.02 µM and a TGI [4] of 4.48 µM. The GI50 [5] was 2.06 µM, the TGI [5] was 3.9 µM and the GI50 [6] was 1.71 µM. For the same molecule, the TGI [6] was 3.43 µM, the GI50 [7] was 1.86 µM and the TGI [7] was 3.43 µM.

`COc1cc(C2CC(=O)c3c(C)nn(-c4nc5ccccc5[nH]4)c3C2)cc(OC)c1OC` (stereo not drawn) gave a GI50 [1] greater than 100 µM, a TGI [1] greater than 100 µM and a GI50 [2] of 2.64 µM. The TGI [2] was greater than 100 µM, the GI50 [9] was greater than 100 µM and the TGI [9] was greater than 100 µM. The GI50 [3] was greater than 100 µM, the TGI [3] was greater than 100 µM and the GI50 [10] was greater than 100 µM. The TGI [10] was greater than 100 µM, the GI50 [4] was greater than 100 µM and the TGI [4] was greater than 100 µM. The GI50 [6] was greater than 100 µM, the TGI [6] was greater than 100 µM and the GI50 [7] was 7.39 µM. It also gave a TGI [7] greater than 100 µM.
